Values quoted from earlier work as cited in patent US20070105828A1, “Novel polymorph form M of mifepristone and process for its preparation” (Glenmark Pharmaceuticals Limited, priority 2005, published 2007).

Target: glucocorticoid receptor (Homo sapiens, UniProt P04150)
Settings: relative to dexamethasone; background statement

Chain of glucocorticoid receptor (P04150 whole entry, species assumed): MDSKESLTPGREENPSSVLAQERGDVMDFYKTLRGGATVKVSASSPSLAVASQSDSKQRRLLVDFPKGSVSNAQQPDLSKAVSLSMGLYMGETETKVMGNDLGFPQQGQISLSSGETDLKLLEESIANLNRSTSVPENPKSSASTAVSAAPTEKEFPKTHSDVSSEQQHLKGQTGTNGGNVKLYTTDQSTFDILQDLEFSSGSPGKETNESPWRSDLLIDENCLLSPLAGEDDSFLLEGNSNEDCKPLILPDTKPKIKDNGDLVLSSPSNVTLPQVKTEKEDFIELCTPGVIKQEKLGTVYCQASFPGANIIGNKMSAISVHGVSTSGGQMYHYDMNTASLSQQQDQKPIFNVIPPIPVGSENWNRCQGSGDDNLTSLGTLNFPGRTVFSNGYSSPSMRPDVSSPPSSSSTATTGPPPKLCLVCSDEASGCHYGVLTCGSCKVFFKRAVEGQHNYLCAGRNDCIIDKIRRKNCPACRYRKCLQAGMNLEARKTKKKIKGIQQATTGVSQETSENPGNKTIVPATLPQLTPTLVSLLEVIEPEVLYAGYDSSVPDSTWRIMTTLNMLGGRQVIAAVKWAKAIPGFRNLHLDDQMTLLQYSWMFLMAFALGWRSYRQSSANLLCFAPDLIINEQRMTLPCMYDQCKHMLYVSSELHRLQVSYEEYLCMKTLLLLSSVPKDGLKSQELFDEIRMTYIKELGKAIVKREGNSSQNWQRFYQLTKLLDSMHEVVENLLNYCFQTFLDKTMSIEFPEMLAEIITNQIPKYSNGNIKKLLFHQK

Q: Which “affinity for the glucocorticoid receptor compared with dexamethasone” value does the source give for CC#C[C@]1(O)CC[C@H]2[C@@H]3CCC4=CC(=O)CCC4=C3[C@@H](c3ccc(N(C)C)cc3)C[C@@]21C [Mifepristone, (11β,17β)-11-[4-(N,N-dimethylamino)phenyl]-17-hydroxy-17-(1-propynyl)estra-4,9-diene-3-one] here?
A: three times greater than that of dexamethasone
